In brackets after ≈: the same amount, converted by molar mass.
Columns and labels:
[1] = test system: vancomycin-susceptible enterococci; assay: broth micro-dilution, mean geometric MIC; type: cell-based, Enterococcus faecium and Enterococcus faecalis; conditions: enterococci, 24-hour incubation
[2] = test system: Staphylococcus aureus SA1199B; type: cell-based
Experimental: (§1) The MIC's were determined using a standard broth micro-dilution assay.

[3] = test system: Staphylococcus aureus S13E; type: cell-based
Experimental: as §1

[4] = test system: vancomycin-resistant enterococci; assay: broth micro-dilution, mean geometric MIC; type: cell-based, Enterococcus faecium and Enterococcus faecalis; conditions: enterococci, 24-hour incubation
Entercoccus faecium 276 = assay: broth micro-dilution MIC; type: cell-based
Experimental: as §1

[5] = test system: Staphylococcus aureus SA1199A; assay: broth micro-dilution MIC; type: cell-based
Experimental: as §1

[6] = test system: Staphylococcus aureus 489; assay: broth micro-dilution MIC; type: cell-based
Experimental: as §1

[7] = test system: Staphylococcus aureus SA1199; assay: broth micro-dilution MIC; type: cell-based
Experimental: as §1

[8] = test system: Staphylococcus aureus X400; assay: broth micro-dilution MIC; type: cell-based
Experimental: as §1

[9] = test system: Staphylococcus aureus 447; assay: broth micro-dilution MIC; type: cell-based
Experimental: as §1

[10] = test system: Entercoccus faecium 180-1; assay: broth micro-dilution MIC; type: cell-based
Experimental: as §1

[11] = test system: Staphylococcus aureus X778; assay: broth micro-dilution MIC; type: cell-based
Experimental: as §1

[12] = test system: Streptococcus pyogenes C203; assay: broth micro-dilution MIC; type: cell-based
Experimental: as §1

[13] = test system: Staphylococcus aureus 491; assay: broth micro-dilution MIC; type: cell-based
Experimental: as §1

[14] = test system: Staphylococcus aureus 446; assay: broth micro-dilution MIC; type: cell-based
Experimental: as §1

Entercoccus faecium 180 = assay: broth micro-dilution MIC; type: cell-based; conditions: Entercoccus faecium 180
Experimental: (§2) The formula I compounds have in vitro and in vivo activity against Gram-positive pathogenic bacteria. The MIC's were determined using a standard broth micro-dilution assay.

[15] = test system: Staphylococcus haemolyticus 415; assay: broth micro-dilution MIC; type: cell-based
Experimental: as §2

[16] = test system: Enterococcus gallinarum 245; assay: broth micro-dilution MIC; type: cell-based; conditions: Enterococcus gallinarum 245
Experimental: as §2

[17] = test system: Staphylococcus epidermidis 270; assay: broth micro-dilution MIC; type: cell-based
Experimental: as §2

[18] = test system: Staphylococcus haemolyticus 105; assay: broth micro-dilution MIC; type: cell-based
Experimental: as §2

[19] = test system: Streptococcus pneumoniae P1; assay: broth micro-dilution MIC; type: cell-based
Experimental: as §2

Entercoccus faecium 2041 = assay: broth micro-dilution MIC; type: cell-based; conditions: Entercoccus faecium 2041
Experimental: as §2

Structure (SMILES)	mean geometric MIC, Vancomycin Sensitive Strains [1] [µg/mL]	MIC [2] [µg/mL]	MIC [3] [µg/mL]	mean geometric MIC, Vancomycin Resistant Strains [4] [µg/mL]	MIC (Entercoccus faecium 276) [µg/mL]	MIC [5] [µg/mL]	MIC [6] [µg/mL]	MIC [7] [µg/mL]	MIC [8] [µg/mL]	MIC [9] [µg/mL]	MIC [10] [µg/mL]	MIC [11] [µg/mL]	MIC [12] [µg/mL]	MIC [13] [µg/mL]	MIC [14] [µg/mL]	MIC (Entercoccus faecium 180) [µg/mL]	MIC [15] [µg/mL]	MIC [16] [µg/mL]	MIC [17] [µg/mL]	MIC [18] [µg/mL]	other results
CCCOC(c1ccccc1)c1ccc(CNC2(C)CC(OC3C(Oc4c5cc6cc4Oc4ccc(cc4Cl)C(OC4CC(C)(N)C(O)C(C)O4)C4NC(=O)C(NC(=O)C6NC(=O)C(CC(N)=O)NC(=O)C(NC(=O)C(CC(C)C)NC)C(O)c6ccc(c(Cl)c6)O5)c5ccc(O)c(c5)-c5c(O)cc(O)cc5C(C(=O)O)NC4=O)OC(CO)C(O)C3O)OC(C)C2O)cc1 (stereo not drawn) [Compound 128]	0.11	2 (≈ 1.09 µM)	1 (≈ 0.546 µM)	2.0	1 (≈ 0.546 µM)	0.5 (≈ 0.273 µM)	1 (≈ 0.546 µM)	0.5 (≈ 0.273 µM)	1 (≈ 0.546 µM)	1 (≈ 0.546 µM)	0.125 (≈ 0.0683 µM)	1 (≈ 0.546 µM)	≤ 0.06	2 (≈ 1.09 µM)	4 (≈ 2.18 µM)	1 (≈ 0.546 µM)	2 (≈ 1.09 µM)	2 (≈ 1.09 µM)	1 (≈ 0.546 µM)	1 (≈ 0.546 µM)	MIC [19]: ≤ 0.06 µg/mL; MIC (Entercoccus faecium 2041): 0.5 µg/mL (≈ 0.273 µM)
CNC(CC(C)C)C(=O)NC1C(=O)NC(CC(N)=O)C(=O)NC2C(=O)NC3C(=O)NC(C(=O)NC(C(=O)O)c4cc(O)cc(O)c4-c4cc3ccc4O)C(OC3CC(C)(N)C(O)C(C)O3)c3ccc(c(Cl)c3)Oc3cc2cc(c3OC2OC(CO)C(O)C(O)C2OC2CC(C)(NCc3ccc(OC)c(OCC4CCCCC4)c3)C(O)C(C)O2)Oc2ccc(cc2Cl)C1O (stereo not drawn) [Compound 142]	1.5	2 (≈ 1.1 µM)	2 (≈ 1.1 µM)	45	1 (≈ 0.548 µM)	≤ 0.06	0.5 (≈ 0.274 µM)	1 (≈ 0.548 µM)	1 (≈ 0.548 µM)	2 (≈ 1.1 µM)	≤ 0.06	1 (≈ 0.548 µM)	≤ 0.06	0.5 (≈ 0.274 µM)	2 (≈ 1.1 µM)	0.5 (≈ 0.274 µM)	1 (≈ 0.548 µM)	1 (≈ 0.548 µM)	0.25 (≈ 0.137 µM)	1 (≈ 0.548 µM)	MIC [19]: ≤ 0.06 µg/mL; MIC (Entercoccus faecium 2041): ≤ 0.06 µg/mL
CNC(CC(C)C)C(=O)NC1C(=O)NC(CC(N)=O)C(=O)NC2C(=O)NC3C(=O)NC(C(=O)NC(C(=O)O)c4cc(O)cc(O)c4-c4cc3ccc4O)C(OC3CC(C)(N)C(O)C(C)O3)c3ccc(c(Cl)c3)Oc3cc2cc(c3OC2OC(CO)C(O)C(O)C2OC2CC(C)(NCc3ccc(OC(=O)c4ccccc4)cc3)C(O)C(C)O2)Oc2ccc(cc2Cl)C1O (stereo not drawn) [Compound 150]	0.25	0.5 (≈ 0.277 µM)	0.25 (≈ 0.139 µM)	1.7	1 (≈ 0.555 µM)	≤ 0.06	0.5 (≈ 0.277 µM)	1 (≈ 0.555 µM)	≤ 0.06	0.5 (≈ 0.277 µM)	≤ 0.06	2 (≈ 1.11 µM)	≤ 0.06	≤ 0.06	1 (≈ 0.555 µM)	0.25 (≈ 0.139 µM)	2 (≈ 1.11 µM)	2 (≈ 1.11 µM)	0.25 (≈ 0.139 µM)	1 (≈ 0.555 µM)	MIC [19]: ≤ 0.06 µg/mL; MIC (Entercoccus faecium 2041): ≤ 0.06 µg/mL

— patent publication US5840684A, “Glycopeptide antibiotic derivatives” (Eli Lilly and Company, priority 1995, dated 1998)
